Test results reported in patent US20240025919A1, “AZA-TETRACYCLIC OXAZEPINE COMPOUNDS AND USES THEREOF” (Genentech, Inc., priority 2022, published 2024).

Legend:
KRAS WT = KRAS WT (Homo sapiens (Human), UniProt P01116); experiment: KRAS WT Biochemical Assay, BODIPY-GDP Exchange TR-FRET (Example 501; 3 nM KRAS WT, 3 nM SOS1, 60-minute incubation); conditions: read-out: KRas HTRF IC50
Procedure, shortened: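 SOS1-mediated exchange assay: 3 nM biotin-KRAS WT with terbium-streptavidin, started with 3 nM SOS1 and 300 nM BODIPY-GDP, HEPES pH 7.5 with MgCl2. TR-FRET (520/490 nm) read after 60 min; normalized to DMSO and full-inhibition control, IC50 from 4-parameter Hill fit.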

KRAS G12D = KRAS G12D (Homo sapiens (Human), UniProt P01116, G12D); experiment: KRAS G12D LoEnz Biochemical Assay, BODIPY-GDP Exchange TR-FRET (SOS1-mediated nucleotide exchange); conditions: read-out: KRas (G12D) GDP HTRF IC50
KRAS G12D, sequence (P01116-2 other isoform, or with tags, fused parts or gaps G12D): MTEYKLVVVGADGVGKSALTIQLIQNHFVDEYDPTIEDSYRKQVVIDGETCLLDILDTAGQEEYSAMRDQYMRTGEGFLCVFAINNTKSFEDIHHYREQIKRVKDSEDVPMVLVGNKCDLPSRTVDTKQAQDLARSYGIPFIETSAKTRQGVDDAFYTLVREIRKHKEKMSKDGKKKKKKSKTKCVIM

KRAS WT, sequence (P01116-2 other isoform, or with tags, fused parts or gaps): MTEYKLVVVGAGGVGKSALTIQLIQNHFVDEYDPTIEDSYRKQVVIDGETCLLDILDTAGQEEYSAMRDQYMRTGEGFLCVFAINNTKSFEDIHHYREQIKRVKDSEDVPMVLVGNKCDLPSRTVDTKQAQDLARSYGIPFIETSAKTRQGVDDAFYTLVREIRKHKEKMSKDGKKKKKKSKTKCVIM

| Structure (SMILES) | IC50 (KRAS WT) [µM] | IC50 (KRAS G12D) [µM] |
| --- | --- | --- |
| Cc1c(F)c(O)cc(-c2nc3c4c(nc(OC[C@@]56CCCN5C[C@H](F)C6)nc4c2F)N2C[C@H]4CC[C@H](N4)[C@H]2[C@H](C)O3)c1C(F)(F)F [Compound 202, 2-Fluoro-5-((5S,5aS,6S,9R)-1-fluoro-12-(((2R,7aS)-2-fluorotetrahydro-1H-pyrrolizin-7a(5H)-yl)methoxy)-5-methyl-5a,6,7,8,9,10-hexahydro-5H-4-oxa-3,10a,11,13,14-pentaaza-6,9-methanonaphtho[1,8-ab]heptalen-2-yl)-3-methyl-4-(trifluoromethyl)phenol] | 0.214 | 0.00198 |
| Cc1c(F)ccc(-c2nc3c4c(nc(OC[C@@]56CCCN5C[C@H](F)C6)nc4c2F)N2C[C@H]4CC[C@H](N4)[C@H]2[C@H](C)O3)c1C(F)(F)F [Compound 203, (5S,5aS,6S,9R)-1-fluoro-2-(4-fluoro-3-methyl-2-(trifluoromethyl)phenyl)-12-(((2R,7aS)-2-fluorotetrahydro-1H-pyrrolizin-7a(5H)-yl)methoxy)-5-methyl-5a,6,7,8,9,10-hexahydro-5H-4-oxa-3,10a,11,13,14-pentaaza-6,9-methanonaphtho[1,8-ab]heptalene] | 1.59 | 0.0268 |
| Cc1c(F)c(N)c(F)c(-c2nc3c4c(nc(OC[C@@]56CCCN5C[C@H](F)C6)nc4c2F)N2C[C@H]4CC[C@H](N4)[C@H]2[C@H](C)O3)c1I [Compound 204, 2,6-Difluoro-3-((5S,5aS,6S,9R)-1-fluoro-12-(((2R,7aS)-2-fluorotetrahydro-1H-pyrrolizin-7a(5H)-yl)methoxy)-5-methyl-5a,6,7,8,9,10-hexahydro-5H-4-oxa-3,10a,11,13,14-pentaaza-6,9-methanonaphtho[1,8-ab]heptalen-2-yl)-4-iodo-5-methylaniline] | 0.0691 | 0.000385 |
| Cc1nc(N)cc(-c2nc3c4c(nc(OCC5(CN6CC7COCC7C6)CC5)nc4c2F)N2C[C@H]4CC[C@H](N4)[C@H]2[C@H](C)O3)c1C(F)(F)F (stereo partly drawn) [Compound 205, 4-((5S,5aS,6S,9R)-1-Fluoro-5-methyl-12-((1-((tetrahydro-1H-furo[3,4-c]pyrrol-5(3H)-yl)methyl)cyclopropyl)methoxy)-5a,6,7,8,9,10-hexahydro-5H-4-oxa-3,10a,11,13,14-pentaaza-6,9-methanonaphtho[1,8-ab]heptalen-2-yl)-6-methyl-5-(trifluoromethyl)pyridin-2-amine] | 0.00861 | 0.00339 |
| Cc1nc(N)cc(-c2nc3c4c(nc(OCC5(CN6C7CCC6COC7)CC5)nc4c2F)N2C[C@H]4CC[C@H](N4)[C@H]2[C@H](C)O3)c1C(F)(F)F [Compound 206, 4-((5S,5aS,6S,9R)-12-((1-((3-Oxa-8-azabicyclo[3.2.1]octan-8-yl)methyl)cyclopropyl)methoxy)-1-fluoro-5-methyl-5a,6,7,8,9,10-hexahydro-5H-4-oxa-3,10a,11,13,14-pentaaza-6,9-methanonaphtho[1,8-ab]heptalene-2-yl)-6-methyl-5-(trifluoromethyl)pyridin-2-amine] | 0.0242 | 0.00017 |
| Cc1nc(N)cc(-c2nc3c4c(nc(OCC5(CN6CC7CCC(C6)O7)CC5)nc4c2F)N2C[C@H]4CC[C@H](N4)[C@H]2[C@H](C)O3)c1C(F)(F)F [Compound 207, 4-((5S,5aS,6S,9R)-12-((1-((8-oxa-3-azabicyclo[3.2.1]octan-3-yl)methyl)cyclopropyl)methoxy)-1-fluoro-5-methyl-5a,6,7,8,9,10-hexahydro-5H-4-oxa-3,10a,11,13,14-pentaaza-6,9-methanonaphtho[1,8-ab]heptalene-2-yl)-6-methyl-5-(trifluoromethyl)pyridin-2-amine] | 0.0431 | 0.00036 |
| Cc1nc(N)cc(-c2nc3c4c(nc(OCC5(CN6C[C@@H]7C[C@H]6CO7)CC5)nc4c2F)N2C[C@H]4CC[C@H](N4)[C@H]2[C@H](C)O3)c1C(F)(F)F [Compound 208, 4-((5S,5aS,6S,9R)-12-((1-(((1S,4S)-2-Oxa-5-azabicyclo[2.2.1]heptan-5-yl)methyl)cyclopropyl)methoxy)-1-fluoro-5-methyl-5a,6,7,8,9,10-hexahydro-5H-4-oxa-3,10a,11,13,14-pentaaza-6,9-methanonaphtho[1,8-ab]heptalene-2-yl)-6-methyl-5-(trifluoromethyl)pyridin-2-amine] | 0.0247 | 0.00031 |
| Cc1nc(N)cc(-c2nc3c4c(nc(OCC5(CN6C[C@H]7C[C@@H]6CO7)CC5)nc4c2F)N2C[C@H]4CC[C@H](N4)[C@H]2[C@H](C)O3)c1C(F)(F)F [Compound 209, 4-((5S,5aS,6S,9R)-12-((1-(((1R,4R)-2-Oxa-5-azabicyclo[2.2.1]heptan-5-yl)methyl)cyclopropyl)methoxy)-1-fluoro-5-methyl-5a,6,7,8,9,10-hexahydro-5H-4-oxa-3,10a,11,13,14-pentaaza-6,9-methanonaphtho[1,8-ab]heptalene-2-yl)-6-methyl-5-(trifluoromethyl)pyridin-2-amine] | 0.0185 | 0.00024 |
| Cc1nc(N)cc(-c2nc3c4c(nc(OCC5(CN6CC7CCC6CO7)CC5)nc4c2F)N2C[C@H]4CC[C@H](N4)[C@H]2[C@H](C)O3)c1C(F)(F)F [Compound 211, 4-((5S,5aS,6S,9R)-12-((1-((2-Oxa-5-azabicyclo[2.2.2]octan-5-yl)methyl)cyclopropyl)methoxy)-1-fluoro-5-methyl-5°,6,7,8,9,10-hexahydro-5H-4-oxa-3,10°,11,13,14-pentaaza-6,9-methanonaphtho[1,8-ab]heptalen-2-yl)-6-methyl-5-(trifluoromethyl)pyridin-2-amine] | 0.0178 | 0.00021 |
| Cc1nc(N)cc(-c2nc3c4c(nc(OCC5(CN6CCOC7(CC7)C6)CC5)nc4c2F)N2C[C@H]4CC[C@H](N4)[C@H]2[C@H](C)O3)c1C(F)(F)F [Compound 212, 4-((5S,5aS,6S,9R)-12-((1-((4-Oxa-7-azaspiro[2.5]octan-7-yl)methyl)cyclopropyl)methoxy)-1-fluoro-5-methyl-5a,6,7,8,9,10-hexahydro-5H-4-oxa-3,10a,11,13,14-pentaaza[6,9]methanonaphtho[1,8-ab]heptalene-2-yl)-6-methyl-5-(trifluoromethyl)pyridin-2-amine] | 0.0391 | 0.00056 |
| Cc1nc(N)cc(-c2nc3c4c(nc(OCC5(CN6CCO[C@H](C)C6)CC5)nc4c2F)N2C[C@H]4CC[C@H](N4)[C@H]2[C@H](C)O3)c1C(F)(F)F [Compound 213, 4-((5S,5aS,6S,9R)-1-Fluoro-5-methyl-12-((1-(((R)-2-methylmorpholino)methyl)cyclopropyl)methoxy)-5a,6,7,8,9,10-hexahydro-5H-4-oxa-3,10a,11,13,14-pentaaza-6,9-methanonaphtho[1,8-ab]heptalen-2-yl)-6-methyl-5-(trifluoromethyl)pyridin-2-amine] | 0.0136 | 0.00031 |
| Cc1nc(N)cc(-c2nc3c4c(nc(OCC56CCN5CC(F)(F)C6)nc4c2F)N2C[C@H]4CC[C@H](N4)[C@H]2[C@H](C)O3)c1C(F)(F)F (stereo partly drawn) [Compound 214, 4-((5S,5aS,6S,9R)-12-((3,3-Difluoro-1-azabicyclo[3.2.0]heptan-5-yl)methoxy)-1-fluoro-5-methyl-5°,6,7,8,9,10-hexahydro-5H-4-oxa-3,10°,11,13,14-pentaaza-6,9-methanonaptho[1,8-ab]heptalen-2-yl)-6-methyl-5-(trifluoromethyl)pyridin-2-amine] | 0.0557 | 0.00042 |
